Laboratory results published in US12545637B2, “Extrahepatic targeted cationic lipid compound with high efficiency and low toxicity and its composition” (BEIJING YOUCARE KECHUANG PHARMACEUTICAL TECHNOLOGY CO., LTD., priority 2023, dated 2026).

What was measured:
[1] = Detection of encapsulation efficiency, drug loading concentration and total RNA concentration (RiboGreen); type: physicochemical; conditions: for Drug loading concentration / Encapsulation efficiency / Total RNA concentration: LNP formulation prepared from the cationic lipid; for encapsulation efficiency higher than ALC-0315: difference vs ALC-0315; for encapsulation efficiency higher than HIMA: difference vs HIMA (HHMA); for encapsulation efficiency higher than SM-102: difference vs SM-102; for encapsulation efficiency higher than YK-009: difference vs YK-009; for encapsulation efficiency higher than compound 21: difference vs compound 21; for encapsulation efficiency higher than compound 23: difference vs compound 23; for drug loading concentration, times that of ALC-0315 / total RNA concentration, times that of ALC-0315: ratio vs ALC-0315; for drug loading concentration, times that of HIMA / total RNA concentration, times that of HIMA: ratio vs HIMA (HHMA); for drug loading concentration, times that of SM-102 / total RNA concentration, times that of SM-102: ratio vs SM-102; for drug loading concentration, times that of YK-009 / total RNA concentration, times that of YK-009: ratio vs YK-009; for drug loading concentration, times that of compound 21 / total RNA concentration, times that of compound 21: ratio vs compound 21; for drug loading concentration, times that of compound 23 / total RNA concentration, times that of compound 23: ratio vs compound 23
In short: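 Samples were diluted in 1×TE to about […], combined with TE and 0.1% Triton X-100 buffers, and held at 37 °C for 10 minutes before dye addition.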

[2] = tested on: female BALB/C mice; test: In vivo imaging in mice of Fluc-mRNA LNP formulations (mRNA expression and duration); conditions: for average radiation intensity, 6 h / average radiation intensity, 24 h / average radiation intensity, 48 h / average radiation intensity, 7 d: Fluc-mRNA LNP intramuscular; for average radiation intensity, 6 h: 6 h after administration; for average radiation intensity, 24 h: 24 h after administration; for average radiation intensity, 48 h: 48 h after administration; for average radiation intensity, 7 d: 7 d after administration
In short: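 Female BALB/C mice (4-6 weeks, 17-19 g) received LNP carrying […] Fluc-mRNA intramuscularly. At 6h, 24 h, 48h and 7d, fluorescent imaging substrate was given intraperitoneally and after 5 minutes average radiance, as a measure of expressed protein, was imaged on an IVIS Spectrum system.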

Structure (SMILES): CCCCCCCCC(CCCCCCCC)OC(=O)CCCCCCCN(CCO)CCN(CCO)CCCCCCCC(=O)OC(CCCCCCCC)CCCCCCCC [YK-403, di(heptadecan-9-yl) 8, 8′-(ethane-1,2-diyl-bis((2-hydroxyethyl)azanediyl))dioctanoate]
- Drug loading concentration [1]: 34.21 µg/mL
- Encapsulation efficiency [1]: 87.9%
- Total RNA concentration [1]: 40.53 µg/mL
- encapsulation efficiency higher than ALC-0315 [1]: 24.6%
- encapsulation efficiency higher than HIMA [1]: 27.7%
- encapsulation efficiency higher than SM-102 [1]: 25.0%
- encapsulation efficiency higher than YK-009 [1]: 24.4%
- encapsulation efficiency higher than compound 21 [1]: 29.9%
- encapsulation efficiency higher than compound 23 [1]: 31.7%
- drug loading concentration, times that of ALC-0315 [1]: 1.27
- total RNA concentration, times that of ALC-0315 [1]: 1.07
- drug loading concentration, times that of HIMA [1]: 1.05
- total RNA concentration, times that of HIMA [1]: 1.11
- drug loading concentration, times that of SM-102 [1]: 1.29
- total RNA concentration, times that of SM-102 [1]: 1.12
- drug loading concentration, times that of YK-009 [1]: 1.24
- total RNA concentration, times that of YK-009 [1]: 1.05
- drug loading concentration, times that of compound 21 [1]: 1.56
- total RNA concentration, times that of compound 21 [1]: 1.40
- drug loading concentration, times that of compound 23 [1]: 1.71
- total RNA concentration, times that of compound 23 [1]: 1.31
- average radiation intensity, times that of ALC-0315 ([2]; 6 h): 1.89
- average radiation intensity, times that of HHMA ([2]; 6 h): 2.40
- average radiation intensity, times that of SM-102 ([2]; 6 h): 2.30
- average radiation intensity, times that of compound 21 ([2]; 6 h): 2.65
- average radiation intensity, times that of compound 23 ([2]; 6 h): 2.73
- expression amount in mice, times that of YK-415 ([2]; 6 h): 13.48
- expression amount in mice, times that of YK-417 ([2]; 6 h): 26.26
- mRNA expression in mice, times that of YK-411 ([2]; 6 h): 271.52
- average radiation intensity, times that of ALC-0315 ([2]; 24 h): 4.51
- average radiation intensity, times that of HHMA ([2]; 24 h): 7.13
- average radiation intensity, times that of SM-102 ([2]; 24 h): 6.93
- average radiation intensity, times that of compound 21 ([2]; 24 h): 7.70
- average radiation intensity, times that of compound 23 ([2]; 24 h): 8.47
- expression amount in mice, times that of YK-415 ([2]; 24 h): 13.26
- expression amount in mice, times that of YK-417 ([2]; 24 h): 42.79
- mRNA expression in mice, times that of YK-411 ([2]; 24 h): 422.95
- average radiation intensity, times that of ALC-0315 ([2]; 48 h): 7.69
- average radiation intensity, times that of HHMA ([2]; 48 h): 9.25
- average radiation intensity, times that of SM-102 ([2]; 48 h): 9.39
- average radiation intensity, times that of compound 21 ([2]; 48 h): 9.78
- average radiation intensity, times that of compound 23 ([2]; 48 h): 9.37
- expression amount in mice, times that of YK-415 ([2]; 48 h): 19.54
- expression amount in mice, times that of YK-417 ([2]; 48 h): 43.80
- mRNA expression in mice, times that of YK-411 ([2]; 48 h): 316.45
- average radiation intensity, times that of ALC-0315 ([2]; 7 d): 1.41
- average radiation intensity, times that of HHMA ([2]; 7 d): 1.65
- average radiation intensity, times that of SM-102 ([2]; 7 d): 1.47
- average radiation intensity, times that of compound 21 ([2]; 7 d): 1.55
- average radiation intensity, times that of compound 23 ([2]; 7 d): 1.61
- expression amount in mice, times that of YK-415 ([2]; 7 d): 2.44
- expression amount in mice, times that of YK-417 ([2]; 7 d): 4.32
- mRNA expression in mice, times that of YK-411 ([2]; 7 d): 20.54
- average radiation intensity, 6 h [2]: 1588400
- average radiation intensity, 24 h [2]: 855204
- average radiation intensity, 48 h [2]: 308540
- average radiation intensity, 7 d [2]: 9857

Structure (SMILES): CCCCCCCCC(CCCCCCCC)COC(=O)CCCCCN(CCCO)CCN(CCCO)CCCCCC(=O)OCC(CCCCCCCC)CCCCCCCC [YK-422, di(2-octyldecyl) 6,6′-(ethane-1,2-diyl-bis((3-hydroxypropyl)azanediyl))dihexanoate]
- Drug loading concentration [1]: 45.05 µg/mL
- Encapsulation efficiency [1]: 92.4%
- Total RNA concentration [1]: 45.76 µg/mL
- encapsulation efficiency higher than ALC-0315 [1]: 29.1%
- encapsulation efficiency higher than HIMA [1]: 32.2%
- encapsulation efficiency higher than SM-102 [1]: 29.5%
- encapsulation efficiency higher than YK-009 [1]: 29.0%
- encapsulation efficiency higher than compound 21 [1]: 34.4%
- encapsulation efficiency higher than compound 23 [1]: 36.2%
- drug loading concentration, times that of ALC-0315 [1]: 1.68
- total RNA concentration, times that of ALC-0315 [1]: 1.21
- drug loading concentration, times that of HIMA [1]: 1.38
- total RNA concentration, times that of HIMA [1]: 1.26
- drug loading concentration, times that of SM-102 [1]: 1.70
- total RNA concentration, times that of SM-102 [1]: 1.27
- drug loading concentration, times that of YK-009 [1]: 1.64
- total RNA concentration, times that of YK-009 [1]: 1.19
- drug loading concentration, times that of compound 21 [1]: 2.05
- total RNA concentration, times that of compound 21 [1]: 1.58
- drug loading concentration, times that of compound 23 [1]: 2.25
- total RNA concentration, times that of compound 23 [1]: 1.47
- average radiation intensity, times that of ALC-0315 ([2]; 6 h): 1.58
- average radiation intensity, times that of HHMA ([2]; 6 h): 2.01
- average radiation intensity, times that of SM-102 ([2]; 6 h): 1.92
- average radiation intensity, times that of compound 21 ([2]; 6 h): 2.21
- average radiation intensity, times that of compound 23 ([2]; 6 h): 2.29
- expression amount in mice, times that of YK-415 ([2]; 6 h): 11.28
- expression amount in mice, times that of YK-417 ([2]; 6 h): 21.98
- mRNA expression in mice, times that of YK-411 ([2]; 6 h): 227.25
- average radiation intensity, times that of ALC-0315 ([2]; 24 h): 3.73
- average radiation intensity, times that of HHMA ([2]; 24 h): 5.90
- average radiation intensity, times that of SM-102 ([2]; 24 h): 5.74
- average radiation intensity, times that of compound 21 ([2]; 24 h): 6.38
- average radiation intensity, times that of compound 23 ([2]; 24 h): 7.01
- expression amount in mice, times that of YK-415 ([2]; 24 h): 10.98
- expression amount in mice, times that of YK-417 ([2]; 24 h): 35.43
- mRNA expression in mice, times that of YK-411 ([2]; 24 h): 350.21
- average radiation intensity, times that of ALC-0315 ([2]; 48 h): 6.76
- average radiation intensity, times that of HHMA ([2]; 48 h): 8.14
- average radiation intensity, times that of SM-102 ([2]; 48 h): 8.26
- average radiation intensity, times that of compound 21 ([2]; 48 h): 8.60
- average radiation intensity, times that of compound 23 ([2]; 48 h): 8.24
- expression amount in mice, times that of YK-415 ([2]; 48 h): 17.19
- expression amount in mice, times that of YK-417 ([2]; 48 h): 38.52
- mRNA expression in mice, times that of YK-411 ([2]; 48 h): 278.33
- average radiation intensity, times that of ALC-0315 ([2]; 7 d): 1.35
- average radiation intensity, times that of HHMA ([2]; 7 d): 1.59
- average radiation intensity, times that of SM-102 ([2]; 7 d): 1.41
- average radiation intensity, times that of compound 21 ([2]; 7 d): 1.49
- average radiation intensity, times that of compound 23 ([2]; 7 d): 1.55
- expression amount in mice, times that of YK-415 ([2]; 7 d): 2.34
- expression amount in mice, times that of YK-417 ([2]; 7 d): 4.15
- mRNA expression in mice, times that of YK-411 ([2]; 7 d): 19.74
- average radiation intensity, 6 h [2]: 1329410
- average radiation intensity, 24 h [2]: 708120
- average radiation intensity, 48 h [2]: 271372
- average radiation intensity, 7 d [2]: 9476
